Assay results: the kinase profiling compilation of Christmann-Franck et al. (2016)

Assays:
Assay in all cases: KINOMEscan competition binding
Conditions in all cases: compound 10.0 µM
TNK1 (human) = TNK1 (human) (UniProt Q13470)
TAOK1 (human) = TAOK1 (human) (UniProt Q7L7X3)
CLK2 (human) = CLK2 (human) (UniProt P49760)
DAPK3 (human) = DAPK3 (human) (UniProt O43293)
PIP4K2B (human) = PIP4K2B (human) (UniProt P78356)
MYLK4 (human) = MYLK4 (human) (UniProt Q86YV6)
HIPK1 (human) = HIPK1 (human) (UniProt Q86Z02)
Sequence of HIPK1 (human) (Q86Z02 whole entry, looked up): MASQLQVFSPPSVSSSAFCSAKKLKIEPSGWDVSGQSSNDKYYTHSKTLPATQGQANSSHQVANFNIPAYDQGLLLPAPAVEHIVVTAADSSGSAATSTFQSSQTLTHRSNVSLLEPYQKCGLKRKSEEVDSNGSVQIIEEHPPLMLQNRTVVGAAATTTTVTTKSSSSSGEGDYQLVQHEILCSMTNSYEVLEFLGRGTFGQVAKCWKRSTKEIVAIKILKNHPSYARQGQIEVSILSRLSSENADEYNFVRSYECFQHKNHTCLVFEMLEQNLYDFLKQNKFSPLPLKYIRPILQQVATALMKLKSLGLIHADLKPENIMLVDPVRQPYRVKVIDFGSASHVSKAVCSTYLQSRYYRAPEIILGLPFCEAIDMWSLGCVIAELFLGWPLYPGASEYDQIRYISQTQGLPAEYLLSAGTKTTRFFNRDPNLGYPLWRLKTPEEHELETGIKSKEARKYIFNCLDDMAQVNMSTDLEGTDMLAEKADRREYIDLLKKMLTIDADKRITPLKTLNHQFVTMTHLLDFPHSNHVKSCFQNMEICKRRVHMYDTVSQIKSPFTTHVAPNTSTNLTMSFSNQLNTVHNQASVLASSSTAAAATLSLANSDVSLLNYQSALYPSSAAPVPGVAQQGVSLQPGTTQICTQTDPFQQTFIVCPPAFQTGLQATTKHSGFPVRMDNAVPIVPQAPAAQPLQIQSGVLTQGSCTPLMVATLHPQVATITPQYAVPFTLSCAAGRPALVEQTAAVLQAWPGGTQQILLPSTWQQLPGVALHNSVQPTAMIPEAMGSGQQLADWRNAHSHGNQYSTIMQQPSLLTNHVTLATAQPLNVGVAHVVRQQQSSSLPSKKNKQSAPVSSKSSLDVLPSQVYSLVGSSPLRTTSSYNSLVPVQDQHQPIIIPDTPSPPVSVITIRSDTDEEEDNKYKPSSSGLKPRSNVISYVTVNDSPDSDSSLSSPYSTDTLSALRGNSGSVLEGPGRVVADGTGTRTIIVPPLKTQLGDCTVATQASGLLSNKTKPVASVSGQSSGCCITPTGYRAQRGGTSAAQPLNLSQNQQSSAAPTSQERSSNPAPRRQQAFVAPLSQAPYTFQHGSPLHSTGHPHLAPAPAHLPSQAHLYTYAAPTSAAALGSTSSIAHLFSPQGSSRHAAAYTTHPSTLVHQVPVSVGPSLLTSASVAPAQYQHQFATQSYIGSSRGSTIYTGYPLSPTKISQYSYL

RPS6KA6 KD2 (human) = RPS6KA6 KD2 (human) (UniProt Q9UK32)
[1] = test system: KIT (human), P10721 [V559D/V654A]
ACVR2B (human) = ACVR2B (human) (UniProt Q13705)
DCLK3 (human) = DCLK3 (human) (UniProt Q9C098)
Sequence of DCLK3 (human) (Q9C098 whole entry, looked up): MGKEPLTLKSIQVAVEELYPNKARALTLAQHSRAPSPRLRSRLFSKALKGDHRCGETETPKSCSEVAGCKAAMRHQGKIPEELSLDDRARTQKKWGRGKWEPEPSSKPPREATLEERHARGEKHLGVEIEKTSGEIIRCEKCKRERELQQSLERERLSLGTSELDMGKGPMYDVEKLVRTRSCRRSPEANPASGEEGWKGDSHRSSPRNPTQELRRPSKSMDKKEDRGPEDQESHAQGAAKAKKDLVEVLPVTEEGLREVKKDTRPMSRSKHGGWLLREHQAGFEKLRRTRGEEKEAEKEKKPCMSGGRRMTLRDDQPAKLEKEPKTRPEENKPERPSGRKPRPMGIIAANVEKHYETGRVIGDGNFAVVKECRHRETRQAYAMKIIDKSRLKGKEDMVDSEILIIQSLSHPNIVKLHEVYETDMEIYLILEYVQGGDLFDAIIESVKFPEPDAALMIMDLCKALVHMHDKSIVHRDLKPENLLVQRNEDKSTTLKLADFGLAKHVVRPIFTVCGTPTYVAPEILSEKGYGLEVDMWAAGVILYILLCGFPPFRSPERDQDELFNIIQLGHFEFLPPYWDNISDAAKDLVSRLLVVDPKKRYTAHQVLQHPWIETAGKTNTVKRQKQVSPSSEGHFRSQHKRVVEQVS

PIP5K1A (human) = PIP5K1A (human) (UniProt Q99755)
Sequence of PIP5K1A (human) (Q99755 whole entry, looked up): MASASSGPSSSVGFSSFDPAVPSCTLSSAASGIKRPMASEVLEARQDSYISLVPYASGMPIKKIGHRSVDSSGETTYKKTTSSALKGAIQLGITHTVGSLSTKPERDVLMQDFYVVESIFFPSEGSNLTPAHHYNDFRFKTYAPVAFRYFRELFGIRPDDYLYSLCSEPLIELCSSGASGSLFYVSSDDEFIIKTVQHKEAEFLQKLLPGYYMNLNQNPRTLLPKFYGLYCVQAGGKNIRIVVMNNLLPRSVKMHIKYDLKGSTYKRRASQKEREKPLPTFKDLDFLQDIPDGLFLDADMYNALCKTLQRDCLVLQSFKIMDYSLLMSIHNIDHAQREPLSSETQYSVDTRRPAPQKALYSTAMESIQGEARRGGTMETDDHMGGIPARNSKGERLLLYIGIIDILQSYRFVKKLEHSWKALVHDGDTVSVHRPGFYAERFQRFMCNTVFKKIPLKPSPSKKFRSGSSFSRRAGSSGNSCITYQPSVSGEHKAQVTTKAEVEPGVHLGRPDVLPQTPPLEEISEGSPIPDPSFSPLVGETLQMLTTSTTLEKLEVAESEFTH

DAPK2 (human) = DAPK2 (human) (UniProt Q9UIK4)
Sequence of DAPK2 (human) (Q9UIK4 whole entry, looked up): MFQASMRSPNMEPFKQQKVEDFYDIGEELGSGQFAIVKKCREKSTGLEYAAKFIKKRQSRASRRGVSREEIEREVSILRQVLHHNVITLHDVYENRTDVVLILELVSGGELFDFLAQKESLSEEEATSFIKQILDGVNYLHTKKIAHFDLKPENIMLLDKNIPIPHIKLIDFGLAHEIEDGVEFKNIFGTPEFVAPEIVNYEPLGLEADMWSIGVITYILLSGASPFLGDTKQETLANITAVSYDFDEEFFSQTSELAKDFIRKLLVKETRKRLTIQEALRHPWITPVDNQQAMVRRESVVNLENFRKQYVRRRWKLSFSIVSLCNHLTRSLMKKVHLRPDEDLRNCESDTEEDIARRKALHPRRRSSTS

PIM3 (human) = PIM3 (human) (UniProt Q86V86)
STK17A (human) = STK17A (human) (UniProt Q9UEE5)
[2] = test system: FLT3 (human), P36888 [D835Y]
PIM1 (human) = PIM1 (human) (UniProt P11309)
CSNK2A1 (human) = CSNK2A1 (human) (UniProt P68400)
TGFBR2 (human) = TGFBR2 (human) (UniProt P37173)
CSNK1E (human) = CSNK1E (human) (UniProt P49674)
MINK1 (human) = MINK1 (human) (UniProt Q8N4C8)
RIPK2 (human) = RIPK2 (human) (UniProt O43353)
DMPK (human) = DMPK (human) (UniProt Q09013)
MAP4K2 (human) = MAP4K2 (human) (UniProt Q12851)
PRKD1 (human) = PRKD1 (human) (UniProt Q15139)
CLK3 (human) = CLK3 (human) (UniProt P49761)
CDK7 (human) = CDK7 (human) (UniProt P50613)
NEK2 (human) = NEK2 (human) (UniProt P51955)
STK33 (human) = STK33 (human) (UniProt Q9BYT3)
BMP2K (human) = BMP2K (human) (UniProt Q9NSY1)
[3] = test system: EGFR (human), P00533 [747-751 del / S ins]
PHKG2 (human) = PHKG2 (human) (UniProt P15735)
[4] = target: JAK3 JH1 catalytic (human) (UniProt P52333)
MYLK (human) = MYLK (human) (UniProt Q15746)
CDK16 (human) = CDK16 (human) (UniProt Q00536)
MAP2K4 (human) = MAP2K4 (human) (UniProt P45985)

Sequence of DAPK3 (human) (O43293 whole entry, looked up): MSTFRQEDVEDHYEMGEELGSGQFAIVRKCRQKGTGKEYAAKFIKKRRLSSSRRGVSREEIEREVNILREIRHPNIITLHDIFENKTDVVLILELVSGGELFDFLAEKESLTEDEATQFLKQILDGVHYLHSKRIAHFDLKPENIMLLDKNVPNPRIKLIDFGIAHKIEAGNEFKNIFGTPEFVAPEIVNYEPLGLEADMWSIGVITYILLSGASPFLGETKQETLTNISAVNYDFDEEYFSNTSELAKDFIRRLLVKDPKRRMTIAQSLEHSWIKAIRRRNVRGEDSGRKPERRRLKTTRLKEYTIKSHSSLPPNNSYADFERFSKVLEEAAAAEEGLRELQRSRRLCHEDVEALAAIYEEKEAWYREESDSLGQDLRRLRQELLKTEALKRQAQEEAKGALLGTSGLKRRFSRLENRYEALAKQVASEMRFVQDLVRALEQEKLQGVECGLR
Sequence of PIP4K2B (human) (P78356 whole entry, looked up): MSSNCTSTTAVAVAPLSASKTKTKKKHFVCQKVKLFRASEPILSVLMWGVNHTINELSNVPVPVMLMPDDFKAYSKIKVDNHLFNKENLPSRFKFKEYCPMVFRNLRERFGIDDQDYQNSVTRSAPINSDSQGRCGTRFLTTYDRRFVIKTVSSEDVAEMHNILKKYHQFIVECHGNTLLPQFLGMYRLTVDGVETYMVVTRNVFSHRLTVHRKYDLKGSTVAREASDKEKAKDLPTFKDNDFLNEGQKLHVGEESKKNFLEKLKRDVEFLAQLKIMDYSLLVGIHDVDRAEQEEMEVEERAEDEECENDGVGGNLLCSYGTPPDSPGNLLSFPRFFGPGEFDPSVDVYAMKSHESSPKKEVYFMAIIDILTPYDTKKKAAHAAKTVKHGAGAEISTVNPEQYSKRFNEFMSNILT
Sequence of TAOK1 (human) (Q7L7X3 whole entry, looked up): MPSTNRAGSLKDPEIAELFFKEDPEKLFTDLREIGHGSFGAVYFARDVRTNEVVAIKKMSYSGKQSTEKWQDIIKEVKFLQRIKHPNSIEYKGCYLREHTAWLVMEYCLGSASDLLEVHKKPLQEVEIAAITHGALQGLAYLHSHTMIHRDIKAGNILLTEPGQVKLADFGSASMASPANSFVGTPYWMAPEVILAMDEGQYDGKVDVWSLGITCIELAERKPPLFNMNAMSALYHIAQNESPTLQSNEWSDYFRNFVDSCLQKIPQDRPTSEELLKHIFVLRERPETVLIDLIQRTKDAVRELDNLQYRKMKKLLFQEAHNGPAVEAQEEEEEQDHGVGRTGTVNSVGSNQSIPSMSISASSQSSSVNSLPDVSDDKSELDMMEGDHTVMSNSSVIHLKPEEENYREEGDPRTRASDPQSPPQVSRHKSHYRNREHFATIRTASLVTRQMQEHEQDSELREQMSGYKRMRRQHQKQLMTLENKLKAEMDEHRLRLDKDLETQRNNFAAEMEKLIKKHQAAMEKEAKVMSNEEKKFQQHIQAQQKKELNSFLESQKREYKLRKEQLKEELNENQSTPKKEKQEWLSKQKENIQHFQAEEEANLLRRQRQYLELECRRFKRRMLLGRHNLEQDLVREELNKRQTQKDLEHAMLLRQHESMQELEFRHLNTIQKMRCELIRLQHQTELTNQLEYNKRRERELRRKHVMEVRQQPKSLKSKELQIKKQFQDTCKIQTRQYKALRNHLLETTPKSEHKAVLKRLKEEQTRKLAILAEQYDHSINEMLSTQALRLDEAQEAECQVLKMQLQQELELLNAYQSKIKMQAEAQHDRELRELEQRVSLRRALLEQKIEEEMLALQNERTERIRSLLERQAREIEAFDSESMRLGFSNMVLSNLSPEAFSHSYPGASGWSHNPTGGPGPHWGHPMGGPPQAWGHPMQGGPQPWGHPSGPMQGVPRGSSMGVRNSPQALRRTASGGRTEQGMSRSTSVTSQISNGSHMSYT

| kinase still bound, per cent of control (TAOK1 (human)) | kinase still bound, per cent of control (CLK2 (human)) | kinase still bound, per cent of control (DAPK3 (human)) | kinase still bound, per cent of control (PIP4K2B (human)) | kinase still bound, per cent of control (MYLK4 (human)) | kinase still bound, per cent of control (HIPK1 (human)) | kinase still bound, per cent of control (ACVR2B (human)) | kinase still bound, per cent of control (DCLK3 (human)) | kinase still bound, per cent of control (PIP5K1A (human)) | kinase still bound, per cent of control (DAPK2 (human)) | kinase still bound, per cent of control (PIM3 (human)) | kinase still bound, per cent of control (STK17A (human)) | kinase still bound, per cent of control [2] | kinase still bound, per cent of control (PIM1 (human)) | kinase still bound, per cent of control (CSNK2A1 (human)) | kinase still bound, per cent of control (TGFBR2 (human)) | kinase still bound, per cent of control (MINK1 (human)) | kinase still bound, per cent of control (PRKD1 (human)) | kinase still bound, per cent of control (CLK3 (human)) | kinase still bound, per cent of control (CDK7 (human)) | also measured | SMILES |
| --- | --- | --- | --- | --- | --- | --- | --- | --- | --- | --- | --- | --- | --- | --- | --- | --- | --- | --- | --- | --- | --- |
| 18% | 15% | 29% | 26% | 32% | 0.6% | 10% | 26% | 30% | 14% | 5.4% | 0.05% | 19% | 8.1% | 12% | 2.4% | – | – | – | – | kinase still bound, per cent of control (TNK1 (human)): 31%; kinase still bound, per cent of control (RPS6KA6 KD2 (human)): 18%; kinase still bound, per cent of control [1]: 24%; kinase still bound, per cent of control (CSNK1E (human)): 22% | N=C1NC(=O)/C(=C/c2ccc(-c3csc4ccccc34)o2)S1 |
| 32% | 2.8% | 4.7% | 8.4% | – | 0.15% | – | 13% | 14% | 2.3% | 8% | 0.35% | 23% | 4% | – | 33% | 29% | 7% | 29% | 8.8% | kinase still bound, per cent of control (RIPK2 (human)): 27%; kinase still bound, per cent of control (DMPK (human)): 18%; kinase still bound, per cent of control (MAP4K2 (human)): 32%; kinase still bound, per cent of control (NEK2 (human)): 13%; kinase still bound, per cent of control (STK33 (human)): 7.2%; kinase still bound, per cent of control (BMP2K (human)): 6.3% | N=C1NC(=O)/C(=C/c2c[nH]c(=O)c(-c3ccc(N4CCNCC4)nc3)c2)S1 |
| 0% | 0.9% | 7.4% | 28% | 5.9% | 1.4% | 15% | 2.9% | 11% | 3.2% | 2.1% | 0.4% | – | 1.4% | 9.9% | 3.6% | 15% | 26% | 12% | 1.4% | kinase still bound, per cent of control [3]: 31%; kinase still bound, per cent of control (PHKG2 (human)): 16%; kinase still bound, per cent of control [4]: 14%; kinase still bound, per cent of control (MYLK (human)): 14%; kinase still bound, per cent of control (CDK16 (human)): 0.15%; kinase still bound, per cent of control (MAP2K4 (human)): 16%; kinase still bound, per cent of control (BMP2K (human)): 14% | N=C1NC(=O)/C(=C/c2ccc(-c3ccccc3O)o2)S1 |
